Experimental findings from article PMC5947877 (Phytomedicine : international journal of phytotherapy and …, 2017) are described below.

In test [1] the target is T1, recombinant human MAO-A (Homo sapiens, UniProt P21397).
T1 sequence (P21397 1-527): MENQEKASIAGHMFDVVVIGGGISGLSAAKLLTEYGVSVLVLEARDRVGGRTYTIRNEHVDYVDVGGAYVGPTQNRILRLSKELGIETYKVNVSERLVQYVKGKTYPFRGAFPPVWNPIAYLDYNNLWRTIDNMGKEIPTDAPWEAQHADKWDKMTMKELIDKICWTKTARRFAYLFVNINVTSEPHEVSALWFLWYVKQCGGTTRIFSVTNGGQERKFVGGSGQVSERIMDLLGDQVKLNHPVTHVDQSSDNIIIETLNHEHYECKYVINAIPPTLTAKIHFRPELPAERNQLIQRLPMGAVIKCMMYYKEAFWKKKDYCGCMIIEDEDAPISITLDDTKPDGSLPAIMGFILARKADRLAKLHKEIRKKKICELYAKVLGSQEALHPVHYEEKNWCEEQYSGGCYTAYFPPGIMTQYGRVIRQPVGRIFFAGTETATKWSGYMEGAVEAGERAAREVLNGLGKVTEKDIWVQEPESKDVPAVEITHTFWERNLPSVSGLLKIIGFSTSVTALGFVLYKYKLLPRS
Kind of test: Enzyme kinetics and mechanism of inhibition with MAO-A. The class given is biochemical. The settings on record: for Type of Inhibition, Monoamine oxidase-A: Lineweaver-Burk analysis, reversibility from dialysis.

In test [2] the target is T1, recombinant human MAO-A. The following applies: dialysis 14-16 h at 4 °C.
The target in test [3] is T2, recombinant human MAO-B (Homo sapiens, UniProt P27338).
T2 sequence (P27338 1-520): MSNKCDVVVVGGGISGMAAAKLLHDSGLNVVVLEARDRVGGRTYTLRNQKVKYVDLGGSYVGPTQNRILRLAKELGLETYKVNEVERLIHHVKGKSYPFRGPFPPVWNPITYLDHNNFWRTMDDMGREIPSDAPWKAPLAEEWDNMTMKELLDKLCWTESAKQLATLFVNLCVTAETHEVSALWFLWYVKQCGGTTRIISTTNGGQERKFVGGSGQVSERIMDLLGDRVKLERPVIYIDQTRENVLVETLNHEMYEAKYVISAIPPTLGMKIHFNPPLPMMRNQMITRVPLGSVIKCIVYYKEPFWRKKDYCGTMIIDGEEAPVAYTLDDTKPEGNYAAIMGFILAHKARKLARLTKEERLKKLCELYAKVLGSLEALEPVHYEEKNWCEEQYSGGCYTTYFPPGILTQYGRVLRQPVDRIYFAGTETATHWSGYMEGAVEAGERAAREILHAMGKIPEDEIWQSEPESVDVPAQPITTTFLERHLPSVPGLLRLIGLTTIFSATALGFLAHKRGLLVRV
In words: Fluorometric kynuramine deamination assay, MAO-B inhibition. The class given is biochemical.

Test [4] deals with T1, recombinant human MAO-A. Kind of test: Fluorometric kynuramine deamination assay, MAO-A inhibition. It is filed as biochemical. The following applies: ratio of IC50 MAO-B / MAO-A.

“Also recorded” adds a separate entry of the source.

With `O=c1c(O)c(-c2ccc(O)c(O)c2)oc2cc(O)cc(O)c12` [Quercetin, quercetin], in test [1], the Ki is 0.29 ± 0.03 µM and the “Type of Inhibition, Monoamine oxidase-A” value is on record as “Competitive/Reversible”. The “Type of Inhibition, Monoamine oxidase-A” value in test [1] (listed as quercetin) is recorded as “competitive”. In test [2], the “nature of binding to MAO-A (recovery of activity after dialysis)” value is “reversible binding; also recorded: reversible inhibition”. In addition, the IC50 in test [3] was 28.4 ± 5.41 µM. Besides, the “preferential MAO-A inhibition over MAO-B (fold)” value in test [4] is on record as 18 fold.
Take `O=c1c(O)c(-c2cc(O)c(O)c(O)c2)oc2cc(O)cc(O)c12` [Myricetin, myricetin]: the Ki in test [1] worked out at 2.24 ± 0.25 µM. In addition, the “Type of Inhibition, Monoamine oxidase-A” value was “Mixed/Reversible” in test [1] and “mixed-type” in test [1] (listed as myricetin). Also, the “nature of binding to MAO-A (recovery of activity after dialysis)” value in test [2] was “reversible binding; also recorded: reversible inhibition”. Further, the IC50 in test [3] was 59.3 ± 1.78 µM.

A word on the Ki: it is the dissociation constant of the complex between target and ligand, obtained from inhibition or displacement. For orientation: IC50 means the midpoint of a concentration-inhibition curve.
